Assay results published in patent US20220257722A1, “COMPOSITIONS AND METHODS OF TREATING AND PREVENTING SYSTEMIC COMPLICATIONS OF ACUTE ILLNESS” (United States Government As Represented By The Department …, priority 2019, published 2022).

Columns and labels:
[1] = system: murine model of pancreatitis; assay: Cerulein-induced acute pancreatitis in mice: organ cytokines, PV LPS, FD4 uptake, histology; format: in vivo, C57BL/6 mice
Protocol: Methods. Pancreatitis was induced in C57BL/6 male and female mice at 8-10 weeks of age by multiple injections of cerulein (50 μg/kg, ip, hourly, 8 times). Samples (e.g., PV and abdominal arterial blood) were collected 0, 18, and 24 hrs after the final injection of cerulein. Tissues were removed and stored for histology and real-time polymerase chain reaction (PCR)-based expression analysis. TDG, (500 μg/kg, ip) was given 0 and 18 hrs after the final injection of cerulein, followed by sampling 24 hrs after the final injection of cerulein. Proinflammatory cytokines was assessed by real-time PCR; PV LPS levels were measured using the limulus amebocyte lysate (LAL) test.

[2] = cited from earlier work
[3] = system: rat jejunal mucosa; assay: FITC-LPS mucosal-to-serosal transport in Ussing-chambered rat jejunal mucosa (FITC fluorescence); format: cell-based; details: mucosal FITC-LPS 10 μg/ml; SSO 0.1 mM or MβCD 1 mM
Protocol: Short-circuit current measurements in Ussing chambered preparations. Mucosa-submucosa preparations were prepared from the mid-jejunum (˜20 cm from the pyloric ring) by muscle stripping using fine forceps under a stereomicroscope. Two or four preparations were prepared from one animal. The tissue was then mounted between two hemi-sliders with an aperture=0.3 cm^2 (Physiologic Instruments, San Diego, Calif., USA). Chambers were bathed with serosal and luminal bathing solutions in a volume of 4 ml each, maintained at 37° C. using a water recirculating heating system. […] Short-circuit current (Isc) was continuously measured with tissue conductance (Gt) and TEER (Ω·cm^2) determined every 20 sec in order to assess the tissue integrity during the LPS and lipid exposure. The current was recorded by the DataQ system (Physiologic Instruments). […]
LPS movement from mucosal to serosal solution. LPS movement m-to-s was assessed using a LAL test kit (Pierce Chromogenic Endotoxin Quant Kit, Pierce Biotechnology, Rockford, Ill., USA), which eliminates non-specific detection of (1,3)-β-D-glucan, then reduces false-positive LPS measurements. […] LPS content in the serosal solutions was measured with the LAL test according to the manufacturer's protocol. The value of background at t=0 min was subtracted and the serosal LPS appearance was expressed as Δ[LPS] […]

[4] = 24 hrs after cerulein treatment

| Compound | PV LPS levels ([1]; 18 and 24 hrs after cerulein treatment, LAL test, TDG 500 μg/kg ip) | PV FD4 levels ([1]; 18 and 24 hrs after cerulein treatment, TDG 500 μg/kg ip) | histological changes in the pancreas [1, 4] | lung inflammation (histology) [1, 4] | Plasma TNFα levels ([1]; 24 hrs after cerulein treatment, TDG 500 μg/kg ip) | increased expression of IL-1β and IL-6 in the pancreas ([1]; TDG 500 μg/kg ip 0 and 18 hrs after final cerulein) | elevated lipase levels ([1]; TDG 500 μg/kg ip 0 and 18 hrs after final cerulein, plasma) | inflammatory cytokine expression in the lung ([1]; TDG 500 μg/kg ip 0 and 18 hrs after final cerulein, sampling 24 hrs, real-time PCR) | elimination half-life ([2]; in humans) | serum t1/2 ([2]; reference [44]) [h] | OA/TCA-increased serosal LPS content measured by FITC fluorescence intensity [3] |
| --- | --- | --- | --- | --- | --- | --- | --- | --- | --- | --- | --- |
| CC[C@H](C)[C@H](NC(=O)[C@H](Cc1ccccc1)NC(=O)[C@H](CC(=O)O)NC(=O)[C@H](CCCNC(=N)N)NC(=O)[C@H](C)NC(=O)[C@H](C)NC(=O)[C@H](CC(C)C)NC(=O)[C@H](CC(N)=O)NC(=O)[C@H](CC(=O)O)NC(=O)[C@H](CC(C)C)NC(=O)[C@@H](NC(=O)[C@@H](NC(=O)[C@H](CC(N)=O)NC(=O)[C@H](CCSC)NC(=O)[C@H](CCC(=O)O)NC(=O)[C@H](CC(=O)O)NC(=O)[C@H](CO)NC(=O)[C@H](Cc1ccccc1)NC(=O)[C@H](CO)NC(=O)CNC(=O)[C@H](CC(=O)O)NC(=O)CNC(=O)[C@@H](N)Cc1c[nH]cn1)[C@@H](C)O)[C@@H](C)CC)C(=O)N[C@@H](CC(N)=O)C(=O)N[C@@H](Cc1c[nH]c2ccccc12)C(=O)N[C@@H](CC(C)C)C(=O)N[C@H](C(=O)N[C@@H](CCC(N)=O)C(=O)N[C@H](C(=O)N[C@@H](CCCCN)C(=O)N[C@H](C(=O)N[C@H](C(=O)N[C@@H](CC(=O)O)C(=O)O)[C@@H](C)O)[C@@H](C)CC)[C@@H](C)O)[C@@H](C)CC [TDG] | significantly reduced | significantly reduced | no effect | reduced | reversed | no effect | no effect | significantly reduced | about 2 hours | ~2 |  |
| CCCCCCCC/C=C\CCCCCCCC(=O)ON1C(=O)CC(S(=O)(=O)O)C1=O (stereo not drawn) [SSO, sulfosuccinimidyl oleate] |  |  |  |  |  |  |  |  |  |  | abolished |
| methyl-β-cyclodextrin [MβCD] |  |  |  |  |  |  |  |  |  |  | abolished |
